Assay results from PubChem BioAssay (NCI).
Values joined by “and” are separate entries in the source; they are usually repeats but may differ in a detail not shown here. Identical values can stand only once.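 The compound was tested at five concentrations on cells cultured in 96-well plates, with a 48-hour exposure period. GI50 marks 50% less growth. Definition used: TGI = concentration required for complete inhibition of growth.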 Where a SMILES comes first, the peptide text is derived from it. [ ]: non-standard residue; d: D form. The star is where a group is joined. Decanoyl = CCCCCCCCCC(=O)*; Leu(ol) = CC(C)C[C@H](N)CO; Iva = CC[C@](C)(N)C(=O)O; Aib = CC(C)(N)C(=O)O

test system: MDA-MB-468 breast; assay: inhibition of tumour cell growth, NCI panel, 48 h

Row | Structure (SMILES) | GI50 | TGI
1 | Clc1ccccc1CNc1c2ccccc2nc2ccccc12 | 1.12 µM | 3.04 µM
2 | CC(=[N-])N1CCC[C@@H](Nc2c3ccccc3nc3ccccc23)C1.[Cl][Pt].[NH-]CCC[NH-] | 0.128 µM | 0.901 µM
3 | CC1=C(C(=O)Nc2cc(Cl)c3[nH]ncc3c2)C(c2ccc(C(F)(F)F)cc2)CC(=O)N1 (configuration not stated) | 8.02 µM | > 25 µM
4 | C[N+](C)(C)CC(=O)N/N=C(\C(=O)NC1=C(Cl)C(=O)c2ccccc2C1=O)C(C#N)c1nc(-c2ccc([N+](=O)[O-])cc2)cs1 (configuration not stated) | 3.89 µM | 16 µM
5 | O=C1C=CC(=O)N1c1cccc(N2C(=O)C=CC2=O)c1 | 1.88 µM | 3.99 µM
6 | Cc1ccc(NC(=O)CSc2nnc3n(Cc4ccccc4)c(=O)c4c(C)c(C(N)=O)sc4n23)cc1 | 18.6 µM | > 100 µM
7 | O=C(N/N=C/c1ccc(O)cc1O)c1cccc(Nc2ccnc(C(F)(F)F)c2)c1 | 0.626 µM | > 58.3 µM
8 | O=[N+]([O-])c1cc(C(F)(F)F)ccc1Sc1ccc(C(F)(F)F)cc1[N+](=O)[O-] | 3.67 µM | > 100 µM
9 | Oc1ccc(C2c3ccccc3Oc3ccccc32)c2cccnc12 | 0.644 µM | 4.53 µM
10 | CCOC(=O)c1ccc(NC2=C(Cl)C(=O)c3nc(C)ccc3C2=O)cc1 | 1.66 µM | 3.54 µM
11 | Cc1cc(-c2ccccn2)cc(C)c1/C=C/c1cncc(-c2nn[nH]n2)c1 | > 25 µM | > 25 µM
12 | O=C(/C=C/C12c3ccccc3C(c3ccccc31)C1C(=O)NC(=O)C12)c1ccc(F)cc1 (configuration not stated) | 1.99 µM | 4.1 µM
13 | C=C1C(=O)O[C@H]2[C@H]1CC/C(COC(=O)C(C)c1ccc(CC(C)C)cc1)=C\CC[C@@]1(C)O[C@@H]21 (some centres not stated) | 1.76 µM | 3.79 µM
14 | CCCCCCCCCC(=O)N[C@@](C)(CC)C(=O)N1CCC[C@H]1C(=O)N[C@@H](CC(C)C)C(=O)N[C@@](C)(CC)C(=O)N[C@@H](CCC(N)=O)C(=O)N[C@H](CCC(N)=O)C(=O)NC(C)(C)C(=O)NC(C)(C)C(=O)N[C@@H](CCC(N)=O)C(=O)N[C@H](CC(C)C)C(=O)N[C@H](CO)CC(C)C (Decanoyl-[Iva]PL[Iva]Q[dQ][Aib][Aib]Q[dL][Leu(ol)]) | 1.77 µM | 3.49 µM
15 | Nc1ccc(-c2cccs2)cc1NC(=O)c1ccc(CCCC(=O)Nc2ccc(C3CC3N)cc2)cc1 (configuration not stated) | 1.9 µM | 4.37 µM
16 | CCc1ccc(C(=Nc2ccc(N(C)C(=O)CN3CCN(C)CC3)cc2)c2c(O)[nH]c3ccc(C(=O)OC)cc23)cc1 | 0.73 µM | 2.35 µM
17 | COc1cc2nccc(Oc3ccc(NC(=O)Nc4cc(C)on4)c(Cl)c3)c2cc1OC | 2.34 µM and 2.93 µM | 8.09 µM and > 10 µM
18 | Oc1c(Cl)cc(Cl)cc1C(c1cc(Cl)cc(Cl)c1O)C(Cl)(Cl)Cl | 2.17 µM | 7.63 µM
19 | CN1CCN(c2ccc(NC(=O)c3cncnc3Nc3ccc(OCc4ccccn4)c(Cl)c3)cc2)CC1 | 3.88 µM | 9.39 µM
20 | CC1(N)CCN(c2cnc(-c3cccc(Cl)c3Cl)c(N)n2)CC1 | 2.58 µM | 17.2 µM
21 | Cc1cc2c(C(N)=O)c(N)n(-c3c(C)ccc(O)c3C)c2nc1C | 8.69 µM | 29.7 µM
